System: hESCs
Experiment: Microarray analysis of hESCs grown 36 h in CDM alone or CDM plus BMP4
Assay type: cell-based, human
Details: hESCs 36 h, CDM plus 10 ng/ml BMP4 vs CDM alone
Text: The change in RNA expression of genes associated with particular cell types is indicated in the following panels. […] In all tables, the ‘margin’ value represents the fold change in mRNA expression (log 2 scale) with a negative value indicating down regulation after BMP4 treatment compared to CDM alone.
Sample RNA was hybridized to Affymetrix hg-u133+2 GeneChips ©. All sample arrays were background corrected, normalized and summarized using default parameters of the RMA model. Array processing was performed using the affy package of the Bioconductor (found on the world wide web at the hypertext protocol transfer address of “bioconductor.org”) suite of software for the R statistical programming language (found on the world wide web at the hypertext protocol transfer address of “r-project.org”). The resulting data set contained processed gene expression values for 54675 probe-sets. Analysis of Differential Regulation: The moderated t-statistic […], implemented in the Limma package of Bioconductor, was employed to assess the significance of differential gene (probe-set) expression between sample groups. In order to reduce errors associated with multiple hypothesis testing on such a scale, the significance p-values obtained were converted to corrected q-values using the FDR method.
Data Visualisation: Heat maps of gene expression were created by importing relevant subsets of RMA processed microarray gene expression data into the dChip v1.3 microarray analysis package (found on the world wide web at the hypertext protocol transfer address of “biostat.harvard.edu/complab/dchip/”). In the case wherein a gene is represented by more than one probe-set on the array, a single probe-set was chosen to represent gene expression in the heat map according to highest mean expression over all samples (i.e. the most reliable sample hybridization regardless of group membership).

## BMP4: Bone Morphogenetic Protein 4 growth factor
  Margin, ACTC mRNA: 4.16 log 2 scale
  Margin, ADRA2A mRNA: −2.49 log 2 scale
  Margin, AGTRL1 mRNA: 4.35 log 2 scale
  Margin, AK3 mRNA: −2.55 log 2 scale
  Margin, ARGBP2 mRNA: −3.43 log 2 scale
  Margin, BAMBI mRNA: 3.86 log 2 scale
  Margin, C2orf31 mRNA: −2.72 log 2 scale
  Margin, C10orf13 mRNA: −2.63 log 2 scale
  Margin, C14orf29 mRNA: −2.44 log 2 scale
  Margin, CACNA2D3 mRNA: −2.42 log 2 scale
  Margin, CDH11 mRNA: 3.81 log 2 scale
  Margin, CFC1 mRNA: 4.45 log 2 scale
  Margin, CHST9 mRNA: −2.54 log 2 scale
  Margin, CLIC5 mRNA: 5.04 log 2 scale
  Margin, COL3A1 mRNA: 4.47 log 2 scale
  Margin, CRH mRNA: 5.13 log 2 scale
  Margin, CUZD1 mRNA: −2.4 log 2 scale
  Margin, CYP26A1 mRNA: −2.51 log 2 scale
  Margin, D21S2088E mRNA: −2.67 log 2 scale
  Margin, DIO2 mRNA: 4.29 log 2 scale
  Margin, DKK4 mRNA: −3.09 log 2 scale
  Margin, DLX2 mRNA: 6.43 log 2 scale
  Margin, DLX5 mRNA: 4.04 log 2 scale
  Margin, DLX6 mRNA: 4.66 log 2 scale
  Margin, EFNA1 mRNA: 4.35 log 2 scale
  Margin, EPAS1 mRNA: 6.2 log 2 scale
  Margin, ETV1 mRNA: −2.49 log 2 scale
  Margin, FLJ25477 mRNA: 4.77 log 2 scale
  Margin, FLJ90231 mRNA: −3.15 log 2 scale
  Margin, FOXA2 mRNA (splice variant): −3.38 log 2 scale
  Margin, FOXF1 mRNA: 4.84 log 2 scale
  Margin, GABRP mRNA: 7.34 log 2 scale
  Margin, GATA3 mRNA: 6.21 log 2 scale
  Margin, GATA5 mRNA: 4 log 2 scale
  Margin, GDF3 mRNA: −3.47 log 2 scale
  Margin, GPR64 mRNA: −2.46 log 2 scale
  Margin, H19 mRNA: 3.98 log 2 scale
  Margin, HAND1 mRNA: 7.27 log 2 scale
  Margin, HAPLN1 mRNA: 8.04 log 2 scale
  Margin, HESX1 mRNA: −2.36 log 2 scale
  Margin, HEY1 mRNA: 3.93 log 2 scale
  Margin, HHEX mRNA: −2.58 log 2 scale
  Margin, HOXB6 mRNA: 5.19 log 2 scale
  Margin, ID4 mRNA: 5.47 log 2 scale
  Margin, IGFBP3 mRNA: 4.44 log 2 scale
  Margin, IPO9 mRNA: −2.83 log 2 scale
  Margin, ISL1 mRNA: 6.5 log 2 scale
  Margin, KAL1 mRNA: −2.98 log 2 scale
  Margin, KCND2 mRNA: −2.74 log 2 scale
  Margin, KCTD12 mRNA: 4.01 log 2 scale
  Margin, KIAA0882 mRNA: 3.81 log 2 scale
  Margin, KLF4 mRNA: −2.4 log 2 scale
  Margin, KRT7 mRNA: 3.91 log 2 scale
  Margin, LCK mRNA: −2.65 log 2 scale
  Margin, LECT1 mRNA: −2.55 log 2 scale
  Margin, LEFTY1 mRNA: −6.56 log 2 scale
  Margin, LEFTY2 mRNA: −3.12 log 2 scale
  Margin, LIX1 mRNA: 4.3 log 2 scale
  Margin, LOC152573 mRNA: −5.04 log 2 scale
  Margin, LOC153469 mRNA: −4.72 log 2 scale
  Margin, LOC387763 mRNA: 4.25 log 2 scale
  Margin, LRAT mRNA: −4.97 log 2 scale
  Margin, LRIG1 mRNA: −2.82 log 2 scale
  Margin, LUM mRNA: 5.88 log 2 scale
  Margin, MAL2 mRNA: −2.37 log 2 scale
  Margin, MEGF10 mRNA: −3.14 log 2 scale
  Margin, MEIS1 mRNA: 4.02 log 2 scale
  Margin, MESP1 mRNA: 4.03 log 2 scale
  Margin, MGC26963 mRNA: −4.02 log 2 scale
  Margin, MSX1 mRNA: 4.28 log 2 scale
  Margin, MSX2 mRNA: 5.43 log 2 scale
  Margin, MYOCD mRNA: 4.49 log 2 scale
  Margin, NANOG mRNA: −3.22 log 2 scale
  Margin, NCRMS mRNA: −2.98 log 2 scale
  Margin, NFE2L3 mRNA: −2.74 log 2 scale
  Margin, NODAL mRNA: −2.93 log 2 scale
  Margin, NOG mRNA: 4.37 log 2 scale
  Margin, OLIG3 mRNA: −3.9 log 2 scale
  Margin, OTX2 mRNA: −4.89 log 2 scale
  Margin, PAPLN mRNA: −3.53 log 2 scale
  Margin, PARG1 mRNA: 4.04 log 2 scale
  Margin, PIPOX mRNA: −2.58 log 2 scale
  Margin, POSTN mRNA: 5.83 log 2 scale
  Margin, PPP2R2B mRNA: −3.6 log 2 scale
  Margin, PRKD1 mRNA: 3.91 log 2 scale
  Margin, PRSS12 mRNA: 4.09 log 2 scale
  Margin, PTPRZ1 mRNA: −2.37 log 2 scale
  Margin, RAM2 mRNA: −2.8 log 2 scale
  Margin, RET mRNA: −2.97 log 2 scale
  Margin, RGS4 mRNA: 3.85 log 2 scale
  Margin, RGS5 mRNA: 4.46 log 2 scale
  Margin, RGS13 mRNA: 4.42 log 2 scale
  Margin, SEMA3C mRNA: 3.89 log 2 scale
  Margin, SFRP1 mRNA: −2.36 log 2 scale
  Margin, SFRP2 mRNA: −2.75 log 2 scale
  Margin, SLC1A6 mRNA: −2.39 log 2 scale
  Margin, SLC16A4 mRNA: 4 log 2 scale
  Margin, SLC40A1 mRNA: 4.19 log 2 scale
  Margin, SNAI2 mRNA: 4.92 log 2 scale
  Margin, SOCS3 mRNA: 3.98 log 2 scale
  Margin, SOX2 mRNA: −3.64 log 2 scale
  Margin, SOX7 mRNA: 4.13 log 2 scale
  Margin, SYNPO2 mRNA: 4.46 log 2 scale
  Margin, TBX3 mRNA: 6.42 log 2 scale
  Margin, TFAP2A mRNA: 4.98 log 2 scale
  Margin, TFCP2L2 mRNA: 3.87 log 2 scale
  Margin, TFCP2L4 mRNA: 4.92 log 2 scale
  Margin, THBS2 mRNA: −3.73 log 2 scale
  Margin, TIMP4 mRNA: −2.9 log 2 scale
  Margin, TMEM46 mRNA: −3.57 log 2 scale
  Margin, TOX mRNA: −3.03 log 2 scale
  Margin, TRIM55 mRNA: 4.24 log 2 scale
  Margin, TRPC4 mRNA: −2.52 log 2 scale
  Margin, UGT8 mRNA: −3.57 log 2 scale
  Margin, USP44 mRNA: −3.63 log 2 scale
  Margin, UTF1 mRNA: −2.47 log 2 scale

From patent US8323971B2, “Differentiation of pluripotent cells into primary germ layer progenitors” (Cambridge Enterprise Limited, priority 2006, dated 2012)
